Measurements: patent US20250223268A1, “4-Methylsulfonylbenzamide Compound, Preparation Method, Herbicidal Composition And Use” (Jiangsu Flag Chemical Industry Co., Ltd., priority 2022, published 2025)

How the values were obtained:
Type in all cases: in vivo
Echinochloa crusgalli [1] = assay: Greenhouse herbicidal activity and crop safety comparison (Test Example 2)
Source text: (§1) Pre-emergence: Seeds of gramineous weeds (Echinochloa crusgalli, Echinochloa crusgalli var. zelayensis, Echinochloa phyllopogon, Eleusine indica, Digitaria sanguinalis, Leptochloa chinensis, Setaria viridis, Alopecurus japonicus Steud, Beckmannia syzigachne, Polypogon fugax, Alopecurus aequalis, Lolium multiflorum, Poa annua, Aegilops tataschii, Avena fatua, Alopecurus myosuroides, Bromus japonicus), broadleaf weeds (Eclipta prostrata, Amaranthus retroflexus, Rorippa indica, Myosoton aquaticum, Veronica didyma, Galium aparine, Solanum nigrum, Xanthium sibiricum, Conyza canadensis, Sesbania cannabina, Sagittaria trifolia), and Cyperus iria (Cyperus iria, Scirpus juncoides, Cyperus difformis, etc.) were sown in plastic pots (7 cm diameter) with nutrient soil and bottom holes. Crop seeds (including Oryza sativa subsp. indica, Oryza sativa subsp. japonica, Oryza sativa L. var. Glutinosa matsum, Triticum aestivum, Zea mays, Sorghum bicolor, Setaria italica, Glycine max, Gossypium hirsutum, Brassica napus, Arachis hypogaea) were sown in plastic pots (10 cm diameter) with nutrient soil and bottom holes. After sowing, the seeds were lightly covered with soil, and the soil was moistened via bottom water absorption. The pots were placed in a constant-temperature light-controlled growth chamber for 24 hours before soil spraying. Spraying was performed using a 3WP-2000 walking-type spray tower (produced by the Nanjing Agricultural Mechanization Institute, Ministry of Agriculture) with a spindle speed of 96 mm/r, spray height of 300 mm, effective spray width of 350 mm, spray area of 0.35 m^2, and nozzle flow rate of 390 mL/min.
(§2) After treatment, the test materials were air-dried naturally in the laboratory and then transferred to the growth chamber. Results were assessed 14-30 days later.
(§3) Post-emergence: Seeds of gramineous weeds (Echinochloa crusgalli, Echinochloa crusgalli var. zelayensis, Echinochloa phyllopogon, Eleusine indica, Digitaria sanguinalis, Leptochloa chinensis, Setaria viridis, Alopecurus japonicus Steud, Beckmannia syzigachne, Polypogon fugax, Alopecurus aequalis, Lolium multiflorum, Poa annua, Aegilops tataschii, Avena fatua, Alopecurus myosuroides, Bromus japonicus), broadleaf weeds (Eclipta prostrata, Amaranthus retroflexus, Rorippa indica, Myosoton aquaticum, Veronica didyma, Galium aparine, Solanum nigrum, Xanthium sibiricum, Conyza canadensis, Sesbania cannabina, Sagittaria trifolia), and Cyperus iria (Cyperus iria, Scirpus juncoides, Cyperus difformis, etc.) were sown in plastic pots (7 cm diameter) with nutrient soil and bottom holes. Crop seeds (including Oryza sativa subsp. indica, Oryza sativa subsp. japonica, Oryza sativa L. var. Glutinosa matsum, Triticum aestivum, Zea mays, Sorghum bicolor, Setaria italica, Glycine max, Gossypium hirsutum, Brassica napus, Arachis hypogaea) were sown in plastic pots (10 cm diameter) with nutrient soil and bottom holes. After sowing, the pots were placed in the growth chamber until the plants reached the 3-6 leaf stage for foliar spraying. Post-treatment, the materials were air-dried naturally and returned to the growth chamber. Results were assessed 14-21 days later.
(§4) • A: Fresh weight inhibition rate≥80% to 100%; • B: Fresh weight inhibition rate[…] to <80%; • C: Fresh weight inhibition rate≥40% to <60%; • D: Fresh weight inhibition rate≥20% to <40%; • E: Fresh weight inhibition rate<20%; • NT: Not tested.
(§5) Using the above method, the herbicidal activity and crop safety of the present compounds were compared with structurally similar known compounds (CK1, CK2, CK3, CK4: compounds 4-756, 4-759, 1-557, 1-563 from WO2012028579A1; CK5: compound 290-1 from WO2013087577A1; CK6: compound 1-129 from WO2011035874A1).

[2] = tested on: Oryza sativa subsp. indica; assay: as above
Source text: as §1, §2, §3, §4, §5

[3] = tested on: Oryza sativa subsp. japonica; assay: as above
Source text: as §1, §2, §3, §4, §5

Cyperus iria = assay: Greenhouse herbicidal activity assay, post-emergence; conditions: Post-emergence test, rate 150 g a.i./hm^2, grade by fresh weight inhibition rate
Summary of the method: (§6)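 Graded A (≥80%) to E (<20%) by fresh weight inhibition, read 14-21 days after spraying. Plants were pot-grown in a growth chamber and received foliar application at the 3-6 leaf stage, being air-dried and returned to the chamber afterwards.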

Digitaria sanguinalis = assay: as above; conditions: Post-emergence test, rate 150 g a.i./hm^2, grade by fresh weight inhibition rate
Summary of the method: as §6

Echinochloa crusgalli [4] = assay: as above; conditions: Post-emergence test, rate 150 g a.i./hm^2, grade by fresh weight inhibition rate
Summary of the method: as §6

Eclipta prostrata = assay: as above; conditions: Post-emergence test, rate 150 g a.i./hm^2, grade by fresh weight inhibition rate
Summary of the method: as §6

Leptochloa chinensis [5] = assay: as above; conditions: Post-emergence test, rate 150 g a.i./hm^2, grade by fresh weight inhibition rate
Summary of the method: as §6

Leptochloa chinensis [6] = assay: Greenhouse herbicidal activity and crop safety comparison (Test Example 2); conditions: Rate 150 g/ha
Source text: as §1, §2, §3, §4, §5

Compound	inhibition at 150 g/ha (Echinochloa crusgalli [1]; Echinochloa crus-galli, Rate 150 g/ha, read-out: Echinochloa crusgalli, control efficacy grading (fresh weight inhibition rate)) [%]	Oryza sativa subsp. indica, grading of fresh weight inhibition rate (crop safety) ([2]; Rate 150 g/ha)	Oryza sativa subsp. japonica, grading of fresh weight inhibition rate (crop safety) ([3]; Rate 150 g/ha)	pest or weed control at 150 g/ha (Cyperus iria; Cyperus iria, read-out: Control efficacy grade, Cyperus iria) [%]	pest or weed control at 150 g/ha (Digitaria sanguinalis; Digitaria sanguinalis, read-out: Control efficacy grade, Digitaria sanguinalis) [%]	pest or weed control at 150 g/ha (Echinochloa crusgalli [4]; Echinochloa crus-galli, read-out: Control efficacy grade, Echinochloa crusgalli) [%]	pest or weed control at 150 g/ha (Eclipta prostrata; Eclipta prostrata, read-out: Control efficacy grade, Eclipta prostrata) [%]	pest or weed control at 150 g/ha (Leptochloa chinensis [5]; Dinebra chinensis, read-out: Control efficacy grade, Leptochloa chinensis) [%]	Leptochloa chinensis, control efficacy grading (fresh weight inhibition rate) (Leptochloa chinensis [6])	Control efficacy grade, Cyperus iria (Cyperus iria)	Control efficacy grade, Eclipta prostrata (Eclipta prostrata)	Control efficacy grade, Leptochloa chinensis (Leptochloa chinensis [5])	Echinochloa crusgalli, control efficacy grading (fresh weight inhibition rate) (Echinochloa crusgalli [1]; Rate 150 g/ha)	Control efficacy grade, Echinochloa crusgalli (Echinochloa crusgalli [4])	Control efficacy grade, Digitaria sanguinalis (Digitaria sanguinalis)	Echinochloa crusgalli, control efficacy grading (fresh weight inhibition rate) (Echinochloa crusgalli [1]; Rate 250 g/ha)	Oryza sativa subsp. indica, grading of fresh weight inhibition rate (crop safety) ([2]; Rate 250 g/ha)	Oryza sativa subsp. japonica, grading of fresh weight inhibition rate (crop safety) ([3]; Rate 250 g/ha)
CCCS(=O)(=O)c1c(S(C)(=O)=O)ccc(C(=O)Nc2nnnn2C)c1Cl [Compound 1-5, 2-chloro-N-(1-methyl-1H-tetrazol-5-yl)-4-(methylsulfonyl)-3-(propylsulfonyl)benzamide]	80 to 100	E (Fresh weight inhibition rate<20%)	E (Fresh weight inhibition rate<20%)	80 to 100	80 to 100	80 to 100	80 to 100	80 to 100	–	–	–	–	–	–	–	–	–	–
CC(C)c1nnc(NC(=O)c2ccc(S(C)(=O)=O)c(S(=O)(=O)C3CCCC3)c2Cl)o1 [Compound 3-549]	–	E (Fresh weight inhibition rate<20%)	E (Fresh weight inhibition rate<20%)	–	–	–	–	–	A (Fresh weight inhibition rate≥80% to 100%)	A (Fresh weight inhibition rate≥80% to 100%)	A (Fresh weight inhibition rate≥80% to 100%)	A (Fresh weight inhibition rate≥80% to 100%)	–	–	–	–	–	–
Cc1nnc(NC(=O)c2ccc(S(C)(=O)=O)c(S(=O)(=O)CCCl)c2Cl)o1 [Compound 3-216]	–	E (Fresh weight inhibition rate<20%)	E (Fresh weight inhibition rate<20%)	–	–	–	–	–	A (Fresh weight inhibition rate≥80% to 100%)	–	–	A (Fresh weight inhibition rate≥80% to 100%)	–	–	–	–	–	–
Cn1nnnc1NC(=O)c1ccc(S(C)(=O)=O)c(S(=O)(=O)C2CCCC2)c1Cl [Compound 1-46]	–	E (Fresh weight inhibition rate<20%)	E (Fresh weight inhibition rate<20%)	–	–	–	–	–	–	A (Fresh weight inhibition rate≥80% to 100%)	A (Fresh weight inhibition rate≥80% to 100%)	–	A (Fresh weight inhibition rate≥80% to 100%)	A (Fresh weight inhibition rate≥80% to 100%)	–	–	–	–
Cn1nnnc1NC(=O)c1ccc(S(C)(=O)=O)c(S(=O)(=O)C2CCC2)c1Cl [Compound 1-41]	–	E (Fresh weight inhibition rate<20%)	E (Fresh weight inhibition rate<20%)	–	–	–	–	–	–	A (Fresh weight inhibition rate≥80% to 100%)	A (Fresh weight inhibition rate≥80% to 100%)	A (Fresh weight inhibition rate≥80% to 100%)	A (Fresh weight inhibition rate≥80% to 100%)	A (Fresh weight inhibition rate≥80% to 100%)	–	–	–	–
CCC(C)S(=O)(=O)c1c(S(C)(=O)=O)ccc(C(=O)Nc2nnnn2C)c1Cl (racemic) [Compound 1-24]	–	E (Fresh weight inhibition rate<20%)	E (Fresh weight inhibition rate<20%)	–	–	–	–	–	–	A (Fresh weight inhibition rate≥80% to 100%)	A (Fresh weight inhibition rate≥80% to 100%)	A (Fresh weight inhibition rate≥80% to 100%)	A (Fresh weight inhibition rate≥80% to 100%)	A (Fresh weight inhibition rate≥80% to 100%)	B (Fresh weight inhibition rate≥260% to <80%)	–	–	–
C=CCS(=O)(=O)c1c(S(C)(=O)=O)ccc(C(=O)Nc2nnnn2C)c1Cl [Compound 1-71]	–	–	–	–	–	–	–	–	–	A (Fresh weight inhibition rate≥80% to 100%)	A (Fresh weight inhibition rate≥80% to 100%)	A (Fresh weight inhibition rate≥80% to 100%)	–	A (Fresh weight inhibition rate≥80% to 100%)	A (Fresh weight inhibition rate≥80% to 100%)	A (Fresh weight inhibition rate≥80% to 100%)	E (Fresh weight inhibition rate<20%)	E (Fresh weight inhibition rate<20%)
Cn1nnnc1NC(=O)c1ccc(S(C)(=O)=O)c(S(=O)(=O)CC2CC2)c1Cl [Compound 1-31]	–	E (Fresh weight inhibition rate<20%)	E (Fresh weight inhibition rate<20%)	–	–	–	–	–	–	A (Fresh weight inhibition rate≥80% to 100%)	A (Fresh weight inhibition rate≥80% to 100%)	A (Fresh weight inhibition rate≥80% to 100%)	A (Fresh weight inhibition rate≥80% to 100%)	A (Fresh weight inhibition rate≥80% to 100%)	A (Fresh weight inhibition rate≥80% to 100%)	–	–	–
CC(C)S(=O)(=O)c1c(S(C)(=O)=O)ccc(C(=O)Nc2nnnn2C)c1Cl [Compound 1-10]	–	E (Fresh weight inhibition rate<20%)	E (Fresh weight inhibition rate<20%)	–	–	–	–	–	–	A (Fresh weight inhibition rate≥80% to 100%)	A (Fresh weight inhibition rate≥80% to 100%)	A (Fresh weight inhibition rate≥80% to 100%)	A (Fresh weight inhibition rate≥80% to 100%)	A (Fresh weight inhibition rate≥80% to 100%)	A (Fresh weight inhibition rate≥80% to 100%)	–	–	–
Cn1nnnc1NC(=O)c1ccc(S(C)(=O)=O)c(S(=O)(=O)C2CC2)c1Cl [Compound 1-36]	–	E (Fresh weight inhibition rate<20%)	E (Fresh weight inhibition rate<20%)	–	–	–	–	–	–	A (Fresh weight inhibition rate≥80% to 100%)	A (Fresh weight inhibition rate≥80% to 100%)	A (Fresh weight inhibition rate≥80% to 100%)	A (Fresh weight inhibition rate≥80% to 100%)	A (Fresh weight inhibition rate≥80% to 100%)	A (Fresh weight inhibition rate≥80% to 100%)	–	–	–
